Key:
[1] = target: Smoothened (Mus musculus) (UniProt P56726); experiment: Inhibition of Smo-mediated Hh signaling in mouse Shh-light2 cells at 3 uM by luciferase reporter gene assay; conditions: Shh Light II
[2] = target: Smoothened (Mus musculus) (UniProt P56726); experiment: Inhibition of Smo-mediated Hh signaling in mouse Shh-light2 cells at 0.3 uM by luciferase reporter gene assay; conditions: Shh Light II
[3] = test system: C3H 10T1/2; experiment: Inhibition of SAG-induced differentiation of mouse mesenchymal pluripotent C3H10T1/2 cells to alkaline phosphatase positive oeseoblasts at 10 uM after 6 days; conditions: C3H 10T1/2, 6 days
[4] = test system: C3H 10T1/2; experiment: Inhibition of SAG-induced differentiation of mouse mesenchymal pluripotent C3H10T1/2 cells to alkaline phosphatase positive oeseoblasts after 6 days; conditions: C3H 10T1/2, 6 days
[5] = target: Smoothened (Mus musculus) (UniProt P56726); experiment: Inhibition of Smo-mediated Hh signaling in mouse Shh-light2 cells by luciferase reporter gene assay

Smoothened (Mus musculus), sequence (P56726 whole entry, looked up): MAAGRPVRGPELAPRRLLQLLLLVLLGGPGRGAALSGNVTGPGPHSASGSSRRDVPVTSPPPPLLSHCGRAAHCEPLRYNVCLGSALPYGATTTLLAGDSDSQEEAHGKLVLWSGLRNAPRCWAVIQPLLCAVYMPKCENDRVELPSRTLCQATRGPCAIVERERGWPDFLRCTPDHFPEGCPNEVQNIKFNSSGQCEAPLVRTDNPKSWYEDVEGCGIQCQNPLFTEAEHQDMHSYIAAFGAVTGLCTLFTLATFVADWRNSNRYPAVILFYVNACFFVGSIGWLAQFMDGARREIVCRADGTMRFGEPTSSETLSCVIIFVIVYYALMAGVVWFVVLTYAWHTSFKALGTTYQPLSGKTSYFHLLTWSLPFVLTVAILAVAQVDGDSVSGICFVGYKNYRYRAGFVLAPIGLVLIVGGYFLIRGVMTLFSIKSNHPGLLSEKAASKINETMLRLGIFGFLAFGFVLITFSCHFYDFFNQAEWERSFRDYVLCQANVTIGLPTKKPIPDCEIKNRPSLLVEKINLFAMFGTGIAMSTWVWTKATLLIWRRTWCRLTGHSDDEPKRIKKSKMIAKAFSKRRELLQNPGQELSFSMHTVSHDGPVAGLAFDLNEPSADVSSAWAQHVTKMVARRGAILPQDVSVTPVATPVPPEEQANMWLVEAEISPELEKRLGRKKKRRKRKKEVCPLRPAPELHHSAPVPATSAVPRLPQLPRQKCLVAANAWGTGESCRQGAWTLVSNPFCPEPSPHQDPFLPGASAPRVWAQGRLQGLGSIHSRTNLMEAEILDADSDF

| SMILES | inhibition [1] [%] | inhibition [2] [%] | IC50 [4] [µM] | IC50 [5] [µM] | inhibition at 10 µM [3] [%] |
| --- | --- | --- | --- | --- | --- |
| COc1cc(C(=O)NC(=S)Nc2ccc(C)c(NC(=O)c3cccc(-c4ccccc4)c3)c2)cc(OC)c1OC | 100 | 72 | 0.6 | – | 97 |
| COc1cc(C(=O)NC(=N)Nc2cccc(NC(=O)c3ccc(-c4ccc(F)cc4)cc3)c2)cc(OC)c1OC | – | – | 0.03 | 0.033 | – |
| COc1cc(C(=O)NC(=O)Nc2cccc(NC(=O)c3ccc4ccccc4c3)c2)cc(OC)c1OC | 3 | 1 | – | – | 4 |
| CCOc1cc(C(=O)NC(=O)Nc2cccc(NC(=O)c3ccccc3)c2)cc(OCC)c1OCC | 24 | 13 | – | – | 45 |
| COc1cc(C(=O)NC(=N)Nc2cccc(-c3cc4ccccc4[nH]3)c2)cc(OC)c1OC | – | – | 0.18 | 0.07 | – |
| COc1cc(C(=O)NC(=N)Nc2ccc(Cl)c(C(=O)Nc3ccccc3)c2)cc(OC)c1OC | – | – | 0.44 | 0.16 | – |
| COc1cc(C(=O)NC(=S)Nc2ccc(Cl)c(C(=O)Nc3ccc(Cl)cc3)c2)cc(OC)c1OC | 98 | 7 | – | – | 96 |
| COc1cc(C(=O)NC(=S)Nc2cccc(-c3cn4ccsc4n3)c2)cc(OC)c1OC | 92 | – | – | 1.1 | 98 |
| COc1ccc(C(=O)Nc2cccc(NC(=O)NC(=O)c3cc(OC)c(OC)c(OC)c3)c2)cc1 | 103 | 40 | – | – | 99 |
| COc1cc(C(=O)NC(=N)Nc2ccc(C)c(C(=O)Nc3ccccc3)c2)cc(OC)c1OC | – | – | 0.2 | 0.19 | – |
| COc1cc(C(=O)NC(=O)Nc2cccc(NC(=O)c3ccc(Cl)cc3)c2)cc(OC)c1OC | 96 | 6 | – | – | 95 |
| COc1cc(C(=O)NC(=O)Nc2cccc(NC(=O)c3ccccc3)c2)cc2c1OCO2 | 2 | 1 | – | – | 32 |
| COc1cc(C(=O)NC(=O)Nc2cccc(NC(=O)C(C)C)c2)cc(OC)c1OC | 62 | 4 | – | – | 99 |
| COc1cc(C(=O)NC(=S)Nc2ccc(C)c(NC(=O)c3ccc(Oc4ccccc4)cc3)c2)cc(OC)c1OC | 97 | 59 | 0.5 | – | 99 |
| COc1cc(C(=O)NC(=S)Nc2ccc(Cl)c(C(=O)Nc3ccc(N(C)C)cc3)c2)cc(OC)c1OC | 99 | 4 | – | – | 98 |

Further lines, with some results ahead:

| inhibition [1] [%] | inhibition [2] [%] | IC50 [4] [µM] | IC50 [5] [µM] | SMILES | inhibition at 10 µM [3] [%] |
| --- | --- | --- | --- | --- | --- |
| 48 | 9 | – | – | COc1cc(C(=O)NC(=S)Nc2cccc(NC(=O)c3ccc(-c4ccccc4)cc3)c2C)cc(OC)c1OC | 7 |
| 54 | 2 | – | – | COc1cc(C(=O)NC(=S)Nc2cccc(NC(=O)c3ccccc3)c2C)cc(OC)c1OC | 44 |
| 98 | 21 | – | – | COc1cc(C(=O)NC(=S)Nc2ccc(F)c(NC(=O)c3ccccc3)c2)cc(OC)c1OC | 96 |
| 33 | 1 | – | – | COc1ccc(NC(=S)NC(=O)c2cc(OC)c(OC)c(OC)c2)cc1NC(=O)c1ccccc1 | 8 |
| – | – | 0.37 | 0.37 | COc1cc(C(=O)NC(=N)Nc2ccc(Cl)c(NC(=O)c3ccccc3)c2)cc(OC)c1OC | – |
| 99 | 26 | – | – | COc1cc(C(=O)NC(=O)Nc2cccc(NC(=O)c3ccc(-c4ccccc4)cc3)c2C)cc(OC)c1OC | 104 |
| 92 | 4 | – | – | COc1cc(C(=O)NC(=S)Nc2cc(NC(=O)c3ccccc3)ccc2F)cc(OC)c1OC | 97 |
| – | 88 | 0.18 | – | COc1cc(C(=O)NC(=N)Nc2ccc(C)c(NC(=O)c3ccccc3)c2)cc(OC)c1OC | – |
| 100 | 60 | 0.9 | – | COc1cc(C(=O)NC(=S)Nc2ccc(C)c(NC(=O)c3ccccc3)c2)cc(OC)c1OC | 99 |

— ChEMBL document CHEMBL2029339, “Acylthiourea, acylurea, and acylguanidine derivatives with potent hedgehog inhibiting activity” (J Med Chem, 2012)
